Data reported in ChEMBL document CHEMBL5576098, “Synthesis and activity of benzimidazole N-Acylhydrazones against Trypanosoma cruzi, Leishmania amazonensis and Leishmania infantum” (Bioorg Med Chem Lett, 2024).
Activity calls are given as the source filed them. No cut-off for these calls is given here.

Experiments:
Trypanosoma cruzi [1] = test: Antitrypanosomal activity against bloodstream trypomastigote form of Trypanosoma cruzi Y measured after 24 hrs; type: functional, organism-based
[2] = Cytotoxicity against mouse L929 cells assessed as inhibition of cell viability measured after 120 hrs; type: toxicity, cell-based
Leishmania amazonensis [3] = test: Antiparasitic activity against Leishmania amazonensis promastigotes infected in mouse RAW264.7 cells measured after 48 hrs; type: functional, organism-based
[4] = Cytotoxicity against non-infected mouse peritoneal macrophage cells measured after 24 hrs; type: toxicity, cell-based; settings: non-infected peritoneal macrophages, read-out: LC50
Trypanosoma cruzi [5] = test: Antitrypanosomal activity against Trypanosoma cruzi Tulahuen expressing beta-galactosidase gene infected in mouse L929 cells measured after 120 hrs; type: functional, organism-based; settings: L929, 120 h
[6] = Selectivity index, ratio of CC50 for mouse L929 cells to IC50 for Trypanosoma cruzi Tulahuen expressing beta-galactosidase gene infected in mouse L929 cells; type: toxicity, cell-based; settings: read-out: Ratio CC50/IC50
Leishmania amazonensis [7] = test: Antiparasitic activity against Leishmania amazonensis amastigotes infected in mouse RAW264.7 cells measured after 48 hrs; type: functional, organism-based; settings: for IC50: RAW264.7, 48 h
[8] = target: Cruzipain (Trypanosoma cruzi) (UniProt P25779); test: Inhibition of Trypanosoma cruzi cruzain at 100 uM relative to control
[9] = Selectivity index, ratio of LC50 for mouse peritoneal macrophage cells to IC50 for bloodstream trypomastigote form of Trypanosoma cruzi Y; type: toxicity; settings: peritoneal macrophages, read-out: Ratio LC50/IC50
[10] = Cytotoxicity against mouse RAW264.7 cells measured after 48 hrs; type: toxicity, cell-based
Leishmania infantum [11] = test: Antiparasitic activity against Leishmania infantum amastigotes infected in mouse RAW264.7 cells measured after 48 hrs; type: functional, organism-based; settings: for IC50: RAW264.7, 48 h
Leishmania infantum [12] = test: Antiparasitic activity against Leishmania infantum promastigotes infected in mouse RAW264.7 cells measured after 48 hrs; type: functional, organism-based; settings: for IC50: RAW264.7, 48 h
Trypanosoma cruzi [13] = test: Antitrypanosomal activity against tissue-culture derived trypomastigote form of Trypanosoma cruzi Y measured after 120 hrs; type: functional
[14] = Selectivity index, ratio of CC50 for mouse RAW264.7 cells to IC50 for Leishmania infantum amastigotes infected in mouse RAW264.7 cells; type: toxicity, cell-based; settings: read-out: Ratio CC50/IC50
[15] = Selectivity index, ratio of CC50 for mouse RAW264.7 cells to IC50 for Leishmania amazonensis amastigotes infected in mouse RAW264.7 cells; type: toxicity, cell-based; settings: read-out: Ratio CC50/IC50
Leishmania infantum [16] = test: Antiparasitic activity against Leishmania infantum; type: functional, organism-based
[17] = Selectivity index, ratio of CC50 for mouse RAW264.7 cells to IC50 for Leishmania infantum promastigotes infected in mouse RAW264.7 cells; type: toxicity, cell-based; settings: read-out: Ratio CC50/IC50

Sequence of Cruzipain (Trypanosoma cruzi) (P25779 123-467 limits assumed): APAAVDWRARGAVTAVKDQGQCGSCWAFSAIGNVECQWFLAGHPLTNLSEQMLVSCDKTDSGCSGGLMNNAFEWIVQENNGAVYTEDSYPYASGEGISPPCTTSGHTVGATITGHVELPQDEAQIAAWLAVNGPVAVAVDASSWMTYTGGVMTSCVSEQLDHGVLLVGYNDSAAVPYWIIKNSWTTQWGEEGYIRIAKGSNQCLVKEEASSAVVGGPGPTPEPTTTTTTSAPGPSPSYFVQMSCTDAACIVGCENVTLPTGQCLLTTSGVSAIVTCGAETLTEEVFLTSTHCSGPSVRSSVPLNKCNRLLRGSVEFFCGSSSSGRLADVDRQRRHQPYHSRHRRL

Row | Compound | IC50 (Trypanosoma cruzi [1]) | CC50 at 120 h [2] | Activity (Leishmania amazonensis [3]) | CC50 at 24 h [4] | IC50 (Trypanosoma cruzi [5]) | selectivity ratio [6] | Activity (Leishmania amazonensis [7]) | inhibition [8] | selectivity ratio [9] | CC50 at 48 h [10] | Activity (Leishmania infantum [11]) | Activity (Leishmania infantum [12]) | LC50 (Trypanosoma cruzi [13]) | selectivity ratio [14] | IC50 (Leishmania infantum [11]) | selectivity ratio [15] | IC50 (Leishmania amazonensis [7]) | IC50 (Leishmania infantum [16]) | selectivity ratio [17] | IC50 (Leishmania infantum [12])
1 | COc1ccc(/C=N/NC(=O)c2nc3ccccc3[nH]2)cc1OC | 160 µM | 293 µM | inactive | > 500 µM | 173 µM | 1.7 | inactive | 35% | > 3.1 | 53.6 µM | inactive | inactive |  |  |  |  |  |  |  | 
2 | O=C(N/N=C/c1ccc(O)cc1)c1nc2ccccc2[nH]1 | 89.7 µM | 170 µM | inactive | > 500 µM | 68.9 µM | 2.5 | inactive | 65% | > 5.6 | 88.8 µM |  | inactive | 233 µM | 0.9 | 97.4 µM |  |  |  |  | 
3 | O=C(N/N=C/c1cccs1)c1nc2ccccc2[nH]1 | > 500 µM | 170 µM | inactive |  | 91.7 µM | 1.9 |  | 24% |  | 131 µM |  | inactive | 416 µM | 2.7 | 48.8 µM | 2.1 | 61.4 µM |  |  | 
4 | O=C(N/N=C/c1ccc(Br)cc1)c1nc2ccccc2[nH]1 | > 500 µM | 49.8 µM | inactive |  | 7.3 µM | 6.8 | inactive | 3% |  | 8.6 µM | inactive | inactive |  |  |  |  |  |  |  | 
5 | COc1ccc(/C=N/NC(=O)c2nc3ccccc3[nH]2)cc1 | 207 µM | 170 µM | inactive | > 500 µM | 80.5 µM | 2.1 |  | 22% |  | 188 µM |  | inactive | 472 µM | 5.1 | 36.7 µM | 5.4 | 35 µM |  |  | 
6 | O=C(N/N=C/c1ccc([N+](=O)[O-])cc1)c1nc2ccccc2[nH]1 | > 500 µM | > 323 µM | inactive |  | 202 µM | > 1.6 | inactive | 2% |  | 84.4 µM | inactive | inactive | 328 µM |  |  |  |  |  |  | 
7 | O=C(N/N=C/c1ccccc1)c1nc2ccccc2[nH]1 | > 500 µM | 204 µM | inactive |  | 98.4 µM | 2.1 |  | 25% |  | 123 µM |  | inactive |  | 2.3 | 53.7 µM | 0.6 | 191 µM |  |  | 
8 | CCCn1c(NC(=O)Cc2ccc(Cl)cc2)nc2ccccc21 |  |  |  |  |  |  |  |  |  |  |  |  |  |  |  |  |  | 12 µM |  | 
9 | COc1ccc(/C=N/NC(=O)c2nc3ccccc3[nH]2)cc1O | 123 µM | 153 µM | inactive | 120 µM | 24.8 µM | 6.2 |  | 58% | 1 | 88.9 µM |  |  | 203 µM | 1.7 | 52.5 µM | 0.7 | 136 µM |  | 0.5 | 191 µM
10 | O=C(N/N=C/c1ccncc1)c1nc2ccccc2[nH]1 | > 500 µM | 265 µM | inactive |  | 32.4 µM | 8.2 |  | 20% |  | 126 µM | inactive | inactive | 619 µM |  |  | 0.7 | 172 µM |  |  | 
11 | O=C(N/N=C/c1ccc(Cl)cc1)c1nc2ccccc2[nH]1 | > 500 µM | 51.9 µM | inactive |  | 14.7 µM | 3.5 | inactive | 3% |  | 12.4 µM |  |  |  | 0.4 | 28.4 µM |  |  |  |  | > 335 µM
